Experimental data as given in paper PMC7849011, “Defining the Antimalarial Activity of Cipargamin in Healthy Volunteers Experimentally Infected with Blood-Stage Plasmodium falciparum” (Antimicrobial Agents and Chemotherapy, 2021).
“Also recorded” adds a separate entry of the source.

Experiments:
P. falciparum 3D7 = assay: Induced blood-stage malaria (IBSM) volunteer infection study: parasitemia by 18S rRNA qPCR; type: in vivo, Plasmodium falciparum; settings: for Log10PRR48 (95%CI) / Parasite Clearance Half-Life (95%CI): 10 mg
Text: A single cohort of eight subjects was inoculated intravenously with P. falciparum 3D7-infected human erythrocytes (approximately 1,800 viable parasites) as previously described ([24]). Parasite growth was monitored by collecting blood samples and performing quantitative PCR (qPCR) targeting the gene encoding P. falciparum 18S rRNA ([25]). […] The dose of cipargamin selected was predicted to be subtherapeutic based on preclinical modeling ([7]) and pharmacokinetic data obtained in previous clinical studies ([8]) and thus chosen to facilitate modeling to estimate the pharmacokinetic/pharmacodynamic relationship. To monitor total parasitemia, blood samples were collected for 18S rRNA qPCR before inoculation, on day 3, twice daily on days 4 to 6, pretreatment on day 7, and 4, 8, 12, 16, 24, 30, and 36 h posttreatment, twice daily from day 9 to day 11, and every 1 to 3 days until day 35. Blood samples for gametocytemia measurements were collected on day 11, every 1 to 3 days between day 15 and day 29, and on day 35. […] Analyses were performed in R version 3.3.0. The PRR and parasite clearance half-life were estimated using the slope of the optimal fit for the log-linear relationship of the parasitemia decay as described previously ([27]).

[1] = tested on: P. falciparum female gametocytes; assay: Gametocytemia by pfs25 qRT-PCR; type: in vivo, Plasmodium falciparum
Description: A single oral dose of 960 mg piperaquine (PCI Pharma Services, United Kingdom) was administered to subjects in response to parasite regrowth. The purpose of piperaquine treatment was to clear asexual parasites without clearing any gametocytes that may be present. This would allow the gametocytocidal activity of a second dose of cipargamin to be investigated, as well as the transmission of gametocytes to mosquitoes. Gametocytemia was monitored using quantitative reverse transcriptase PCR (qRT-PCR) targeting pfs25 mRNA, a transcript preferentially expressed in mature female gametocytes ([26]). Transcripts per milliliter of blood were converted to female gametocytes per milliliter of blood using a standard curve ([29]). All participants were to receive compulsory rescue treatment with artemether-lumefantrine ([…]; Novartis Pharmaceuticals Pty. Ltd., Macquarie Park, Australia), as well as a single 45-mg dose of primaquine ([…] Group, Sydney, Australia) to clear gametocytes, 21 days after cipargamin dosing or earlier if a second round of parasite regrowth occurred following piperaquine treatment. To monitor total parasitemia, blood samples were collected for 18S rRNA qPCR before inoculation, on day 3, twice daily on days 4 to 6, pretreatment on day 7, and 4, 8, 12, 16, 24, 30, and 36 h posttreatment, twice daily from day 9 to day 11, and every 1 to 3 days until day 35. Blood samples for gametocytemia measurements were collected on day 11, every 1 to 3 days between day 15 and day 29, and on day 35. […] Analyses were performed in R version 3.3.0. The PRR and parasite clearance half-life were estimated using the slope of the optimal fit for the log-linear relationship of the parasitemia decay as described previously ([27]).

[2] = 10 mg single oral dose, 8 healthy subjects, IBSM

C[C@H]1Cc2c([nH]c3cc(Cl)c(F)cc23)[C@@]2(N1)C(=O)Nc1ccc(Cl)cc12 [cipargamin]
time to observed reduction in parasitemia (P. falciparum 3D7; 10 mg single oral dose): ≤ 24 h | log10 parasite reduction ratio over 48 h postdose (PRR48), cohort-specific (P. falciparum 3D7; [2]): 3.63 | parasite clearance half-life, cohort-specific (P. falciparum 3D7; [2]): 3.99 h | time of parasite regrowth after dosing (P. falciparum 3D7; 10 mg single oral dose, all 8 subjects): 3 to 8 days | Log10PRR48 (95%CI) (P. falciparum 3D7; subject 1): 4.22 (3.15, 5.29) | Parasite Clearance Half-Life (95%CI) (P. falciparum 3D7; subject 1): 3.42 (2.73, 4.59) h | Log10PRR48 (95%CI) (P. falciparum 3D7; subject 2): 5.84 (4.79, 6.90) | Parasite Clearance Half-Life (95%CI) (P. falciparum 3D7; subject 2): 2.47 (2.10, 3.02) h | Log10PRR48 (95%CI) (P. falciparum 3D7; subject 3): 4.09 (3.45, 4.73) | Parasite Clearance Half-Life (95%CI) (P. falciparum 3D7; subject 3): 3.53 (3.05, 4.19) h | Log10PRR48 (95%CI) (P. falciparum 3D7; subject 4): 2.18 (1.62, 2.73) | Parasite Clearance Half-Life (95%CI) (P. falciparum 3D7; subject 4): 6.64 (5.30, 8.90) h | Log10PRR48 (95%CI) (P. falciparum 3D7; subject 5): 4.23 (3.48, 4.98) | Parasite Clearance Half-Life (95%CI) (P. falciparum 3D7; subject 5): 3.42 (2.90, 4.15) h | Log10PRR48 (95%CI) (P. falciparum 3D7; subject 6): 1.28 (0.85, 1.71) | Parasite Clearance Half-Life (95%CI) (P. falciparum 3D7; subject 6): 11.39 (8.47, 17.37) h | Log10PRR48 (95%CI) (P. falciparum 3D7; subject 7): 4.12 (3.22, 5.03) | Parasite Clearance Half-Life (95%CI) (P. falciparum 3D7; subject 7): 3.51 (2.87, 4.49) h | Log10PRR48 (95%CI) (P. falciparum 3D7; subject 8): 4.63 (4.34, 4.92) | Parasite Clearance Half-Life (95%CI) (P. falciparum 3D7; subject 8): 3.12 (2.93, 3.33) h | gametocyte development after treatment ([1]; 10 mg cipargamin, followed by piperaquine): Low gametocyte densities were detected in all subjects; also recorded: detected in all 8 subjects; also recorded: not sufficient to prevent gametocyte development | gametocytemia at time of DMFA, geometric mean ([1]; 20 days after cipargamin dosing): 439 gametocytes/ml | peak gametocytemia, geometric mean ([1]; after 10 mg cipargamin then 960 mg piperaquine, 8 subjects): 976 female gametocytes/ml | time of peak gametocytemia after cipargamin dosing ([1]; all subjects, 24 days postinoculation): approximately 17 days
